According to patent publication US5891901A, “Substituted pyrroles” (Hoffmann-La Roche Inc., priority 1997, dated 1999):

Key:
SW480 cells = test: Antiproliferative activity, SW480 colon carcinoma cell line (MTT); assay type: cell-based; settings: Homo sapiens, 168 h, MTT at day 7 post-drug addition, values marked * (Compounds A, B, C) are an average of two separate experiments
Experimental: (§1) The epithelial breast carcinoma cell line, MDA-MB435 and the colon carcinoma cell line, SW480, were purchased from ATCC (American Type Culture Collection) and were grown in culture in medium as recommended by ATCC. For analysis of the effect of various compounds on growth of these cells, the cells were plated at a concentration of 1500 cells/well in a 96 well tissue culture plate ("test plate"). The day after the cells were plated, the compounds to be analyzed were dissolved in 100% DMSO (dimethyl sulfoxide) to yield a 10 mM stock solution. Each compound was diluted in H2 O to 1 mM and was added to triplicate wells in the first row of a 96 well master plate which contains medium to yield a final concentration of 40 μM. The compounds were then serially diluted in medium in the "master plate". The diluted compound(s) were then transferred to test plates containing cells. A row of vehicle "control cells" received DMSO. The final concentration of DMSO in each well was 0.1%. At day 5 post-drug addition, the plate containing MDA-MB435 cells were analyzed as follows. Plates containing SW480 cells were analyzed at day 7 post-drug addition as follows.
(§2) MTT ([3-(4,5-dimethylthiazole-2-yl)-2,5-diphenyl-2H-tetrazolium bromide]; thiazolyl blue) was added to each well to yield a final concentration of 1 mg/ml. The plate was then incubated at 37° C. for 21/2-3 hours. The MTT containing medium was then removed and 50 μl of 100% ethanol was added to each well to dissolve the formazan. The absorbences were then read using an automated plate reader (Bio-tek microplate reader). IC50 's were calculated using the Reed and Munsch equation, see, Am. J. Hygiene Vol. 27 pgs. 493-497, 1938.

MDA-MB435 cells = test: Antiproliferative activity, MDA-MB435 epithelial breast carcinoma cell line (MTT); assay type: cell-based; settings: Homo sapiens, MDA-MB-435, 120 h, MTT at day 5 post-drug addition, values marked * (Compounds A, B, D) are an average of two separate experiments, read-out: Antiproliferative Activity, MDAMB435 IC50
Experimental: as §1, §2

Row | Structure (SMILES) | IC50 (SW480 cells) [nM] | IC50 (MDA-MB435 cells) [nM]
1 | CSc1ccc2c(C3=C(c4cn(C)c5ccccc45)C(=O)NC3=O)cn(C)c2c1 [Compound B, 3-(6-methylsulfanyl-1-methyl-1H-indol-3-yl)-4-(1-methyl-1H-indol-3-yl)-pyrrole-2,5-dione] | 70 | 45
2 | Cn1cc(C2=C(c3cn(C)c4cc(O)ccc34)C(=O)NC2=O)c2ccccc21 [Compound C, 3-(6-hydroxy-1-methyl-1H-indol-3-yl)-4-(1-methyl-1H-indol-3-yl)-pyrrole-2,5-dione] | 70 | 30
3 | Cn1cc(C2=C(c3cn(C)c4cc(CC#N)ccc34)C(=O)NC2=O)c2ccccc21 [Compound E, {1-methyl-3-[4-(1-methyl-1H-indol-3-yl)-2,5-dioxo-2,5-dihydro-1H-pyrrol-3-yl]-1H-indol-6-yl}-acetonitrile] | – | 200
4 | Cc1ccc2c(C3=C(c4cn(C)c5ccccc45)C(=O)NC3=O)cn(C)c2c1 [Compound A, 3-(1,6-dimethyl-1H-indol-3-yl)-4-(1-methyl-1H-indol-3yl)-pyrrole-2,5-dione] | 29 | 33
5 | CCc1ccc2c(C3=C(c4cn(C)c5ccccc45)C(=O)NC3=O)cn(C)c2c1 [Compound D, 3-(6-ethyl-1-methyl-1H-indol-3-yl)-4-(1-methyl-1H-indol-3-yl)-pyrrole-2,5-dione] | – | 80
